Data as given in patent publication US11739098B2 (BRISTOL-MYERS SQUIBB COMPANY, priority 2017, dated 2023).

Experiments:
Format in all cases: cell-based
[1] = target: T1, human TLR7 (Homo sapiens, UniProt Q9NYK1); assay: TLR7 inhibition reporter assay (HEK-Blue cells, SEAP reporter, gardiquimod stimulation); details: HEK-Blue cells overexpressing human TLR7, SEAP reporter, gardiquimod 7.5 μM
T1 construct: host or cells: HEK-Blue cells (HEK293-derived reporter line)
T1 sequence (Q9NYK1 27-1049): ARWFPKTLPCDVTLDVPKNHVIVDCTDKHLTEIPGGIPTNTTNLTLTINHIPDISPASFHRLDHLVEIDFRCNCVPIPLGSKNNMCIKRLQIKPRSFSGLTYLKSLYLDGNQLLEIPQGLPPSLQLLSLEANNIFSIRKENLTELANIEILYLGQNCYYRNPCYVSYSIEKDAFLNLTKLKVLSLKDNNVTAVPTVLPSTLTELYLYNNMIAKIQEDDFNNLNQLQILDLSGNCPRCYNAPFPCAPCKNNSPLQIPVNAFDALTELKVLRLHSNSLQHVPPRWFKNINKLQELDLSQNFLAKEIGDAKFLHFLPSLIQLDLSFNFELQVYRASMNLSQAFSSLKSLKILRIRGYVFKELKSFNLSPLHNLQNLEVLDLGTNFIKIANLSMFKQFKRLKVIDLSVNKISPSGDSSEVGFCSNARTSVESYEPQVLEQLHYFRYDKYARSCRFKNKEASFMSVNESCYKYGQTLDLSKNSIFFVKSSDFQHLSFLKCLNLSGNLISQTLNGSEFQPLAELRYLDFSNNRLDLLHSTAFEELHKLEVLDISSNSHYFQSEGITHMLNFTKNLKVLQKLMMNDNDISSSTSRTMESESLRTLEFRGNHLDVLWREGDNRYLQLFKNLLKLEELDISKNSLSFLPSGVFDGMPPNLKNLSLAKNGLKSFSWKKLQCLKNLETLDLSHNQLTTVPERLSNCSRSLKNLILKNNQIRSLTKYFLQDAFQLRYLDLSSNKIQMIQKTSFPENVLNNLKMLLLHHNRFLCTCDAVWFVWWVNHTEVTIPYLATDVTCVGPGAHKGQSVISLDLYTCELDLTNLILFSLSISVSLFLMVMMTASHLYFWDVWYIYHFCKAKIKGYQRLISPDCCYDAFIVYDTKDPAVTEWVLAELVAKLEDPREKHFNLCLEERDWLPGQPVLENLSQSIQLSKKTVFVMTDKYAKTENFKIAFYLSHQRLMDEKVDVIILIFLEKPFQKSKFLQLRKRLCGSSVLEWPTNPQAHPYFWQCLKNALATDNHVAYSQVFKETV
Summary of the method: (§1)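 Read-out is SEAP activity in HEK-Blue detection medium after 22 h at 37 °C, converted to percent inhibition against agonist-plus-DMSO and reference-inhibitor controls. Cells saw compound (0.05 nM–50 μM, 30 min, room temperature) before gardiquimod 7.5 μM, R848 15.9 μM or ODN2006 5 nM for TLR7, TLR8 and TLR9, respectively.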

[2] = target: T2, human TLR9 (Homo sapiens, UniProt Q9NR96); assay: TLR9 inhibition reporter assay (HEK-Blue cells, SEAP reporter, ODN2006 stimulation); details: HEK-Blue cells overexpressing human TLR9, SEAP reporter, ODN2006 5 nM
T2 construct: host or cells: HEK-Blue cells (HEK293-derived reporter line)
T2 sequence (Q9NR96 26-1032): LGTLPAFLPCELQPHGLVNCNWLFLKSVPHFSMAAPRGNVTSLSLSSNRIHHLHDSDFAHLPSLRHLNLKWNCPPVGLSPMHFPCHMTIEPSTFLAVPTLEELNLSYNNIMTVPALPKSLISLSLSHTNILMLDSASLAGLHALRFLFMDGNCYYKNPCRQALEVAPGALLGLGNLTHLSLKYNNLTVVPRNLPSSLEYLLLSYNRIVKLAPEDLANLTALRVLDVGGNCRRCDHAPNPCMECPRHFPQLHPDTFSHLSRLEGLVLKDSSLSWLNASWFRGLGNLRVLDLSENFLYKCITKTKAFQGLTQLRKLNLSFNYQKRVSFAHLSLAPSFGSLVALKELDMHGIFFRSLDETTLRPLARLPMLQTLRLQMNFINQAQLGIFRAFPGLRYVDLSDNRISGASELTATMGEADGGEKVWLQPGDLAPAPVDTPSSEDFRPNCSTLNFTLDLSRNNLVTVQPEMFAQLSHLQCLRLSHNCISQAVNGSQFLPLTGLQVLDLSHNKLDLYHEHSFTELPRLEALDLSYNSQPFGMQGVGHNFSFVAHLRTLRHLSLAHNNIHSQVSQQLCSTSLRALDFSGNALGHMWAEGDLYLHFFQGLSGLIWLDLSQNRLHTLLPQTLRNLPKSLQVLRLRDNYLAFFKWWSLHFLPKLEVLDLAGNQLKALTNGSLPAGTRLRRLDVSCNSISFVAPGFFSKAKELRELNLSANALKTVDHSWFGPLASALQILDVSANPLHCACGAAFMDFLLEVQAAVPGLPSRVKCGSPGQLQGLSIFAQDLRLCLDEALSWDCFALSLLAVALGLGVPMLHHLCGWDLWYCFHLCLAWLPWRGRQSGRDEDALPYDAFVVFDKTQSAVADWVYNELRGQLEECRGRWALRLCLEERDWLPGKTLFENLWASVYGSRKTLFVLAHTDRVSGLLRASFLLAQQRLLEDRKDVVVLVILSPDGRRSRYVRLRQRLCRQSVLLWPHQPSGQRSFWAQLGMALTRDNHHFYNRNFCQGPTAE
Summary of the method: as §1

[3] = target: T3, human TLR8 (Homo sapiens, UniProt Q9NR97); assay: TLR8 inhibition reporter assay (HEK-Blue cells, SEAP reporter, R848 stimulation); details: HEK-Blue cells overexpressing human TLR8, SEAP reporter, R848 15.9 μM
T3 construct: host or cells: HEK-Blue cells (HEK293-derived reporter line)
T3 sequence (Q9NR97 27-1041): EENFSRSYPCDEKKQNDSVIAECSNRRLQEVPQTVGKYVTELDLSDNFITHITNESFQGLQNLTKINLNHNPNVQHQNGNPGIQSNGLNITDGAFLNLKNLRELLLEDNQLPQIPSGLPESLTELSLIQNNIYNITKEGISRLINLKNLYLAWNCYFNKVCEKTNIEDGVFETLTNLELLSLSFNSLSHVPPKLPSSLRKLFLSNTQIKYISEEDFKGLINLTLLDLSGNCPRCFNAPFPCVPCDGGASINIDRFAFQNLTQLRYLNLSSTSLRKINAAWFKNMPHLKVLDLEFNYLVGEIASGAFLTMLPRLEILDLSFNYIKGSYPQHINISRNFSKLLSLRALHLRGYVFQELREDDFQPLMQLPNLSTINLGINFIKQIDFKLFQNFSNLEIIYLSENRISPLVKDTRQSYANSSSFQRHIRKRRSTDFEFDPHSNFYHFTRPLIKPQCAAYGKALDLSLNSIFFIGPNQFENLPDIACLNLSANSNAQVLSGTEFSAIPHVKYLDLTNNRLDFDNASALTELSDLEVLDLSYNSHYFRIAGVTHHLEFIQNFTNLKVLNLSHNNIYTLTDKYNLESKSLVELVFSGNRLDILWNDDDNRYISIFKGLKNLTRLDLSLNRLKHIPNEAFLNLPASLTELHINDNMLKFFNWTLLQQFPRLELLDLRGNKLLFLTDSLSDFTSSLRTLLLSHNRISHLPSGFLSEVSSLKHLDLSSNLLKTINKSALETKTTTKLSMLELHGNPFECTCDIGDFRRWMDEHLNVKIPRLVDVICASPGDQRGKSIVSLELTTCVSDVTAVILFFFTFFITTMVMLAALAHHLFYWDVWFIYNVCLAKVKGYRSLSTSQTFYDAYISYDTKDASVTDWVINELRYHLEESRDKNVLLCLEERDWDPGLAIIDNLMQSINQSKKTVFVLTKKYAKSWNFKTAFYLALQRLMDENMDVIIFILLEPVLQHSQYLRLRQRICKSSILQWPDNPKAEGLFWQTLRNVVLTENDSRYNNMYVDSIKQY
Summary of the method: as §1

Compound	IC50 [1] [µM]	IC50 [2] [µM]	IC50 [3] [µM]
COc1cc(-c2[nH]c3ccc(C4CCN(C5COC5)CC4)cc3c2C(C)C)cc2ncnn12 [Example 710, 7-(3-isopropyl-5-(1-(oxetan-3-yl)piperidin-4-yl)-1H-indol-2-yl)-5-methoxy-[1,2,4]triazolo[1,5-a]pyridine]	< 0.1	1 to 50	< 0.1
CC(C)c1c(-c2ccc3nccn3n2)[nH]c2ccc(C3CCNCC3)cc12 [Example 27, 6-(3-isopropyl-5-(piperidin-4-yl)-1H-indol-2-yl)imidazo[1,2-b]pyridazine]	< 0.1	1 to 50	< 0.1
Cc1cc2ncnn2nc1-c1[nH]c2ccc(C3CCN(C4CCOCC4)CC3)cc2c1C(C)C [Example 687, 6-(3-isopropyl-5-(1-(tetrahydro-2H-pyran-4-yl)piperidin-4-yl)-1H-indol-2-yl)-7-methyl-[1,2,4]triazolo[1,5-b]pyridazine]	< 0.1	1 to 50	< 0.1
CC(C)c1c(-c2ccc3nccn3c2)[nH]c2ccc(C3CCN(Cc4c[nH]cn4)CC3)cc12 [Example 940, 6-(5-(1-((1H-imidazol-4-yl)methyl)piperidin-4-yl)-3-isopropyl-1H-indol-2-yl)imidazo[1,2-a]pyridine]	< 0.1	< 0.1	< 0.1
CNC(=O)CN1CCC(c2ccc3[nH]c(-c4ccn5ccnc5c4)c(CC(F)F)c3c2)CC1 [Example 446, 2-(4-(3-(2,2-difluoroethyl)-2-(imidazo[1,2-a]pyridin-7-yl)-1H-indol-5-yl)piperidin-1-yl)-N-methylacetamide]	< 0.1	0.1 to 1	0.1 to 1
C[C@@H](O)CC(=O)N1CCC(c2ccc3[nH]c(-c4cc(F)c5nccn5c4)c(CC(F)F)c3c2)CC1 [Example 603, (R)-1-(4-(3-(2,2-difluoroethyl)-2-(8-fluoroimidazo[1,2-a]pyridin-6-yl)-1H-indol-5-yl)piperidin-1-yl)-3-hydroxybutan-1-one]	0.1 to 1	> 50	> 3.13
CCc1c(-c2cnc3[nH]c(=O)[nH]c3c2)[nH]c2ccc(C3CCNCC3)cc12 [Example 180, 6-(3-ethyl-5-(piperidin-4-yl)-1H-indol-2-yl)-1,3-dihydro-2H-imidazo[4,5-b]pyridin-2-one]	1 to 50	1 to 50	1 to 50
CC(C)c1c(-c2c[nH]c3cnccc23)[nH]c2ccc(C3CCNCC3)cc12 [Example 15, 3-(3-isopropyl-5-(piperidin-4-yl)-1H-indol-2-yl)-1H-pyrrolo[2,3-c]pyridine]	0.1 to 1	0.1 to 1	1 to 50
COc1cc(-c2[nH]c3ccc(C4CCN(C5CCOCC5)CC4)cc3c2C(C)C)nn2ncnc12 [Example 692, 6-(3-isopropyl-5-(1-(tetrahydro-2H-pyran-4-yl)piperidin-4-yl)-1H-indol-2-yl)-8-methoxy-[1,2,4]triazolo[1,5-b]pyridazine]	< 0.1	1 to 50	< 0.1

Other lines, results leading:

IC50 [1] [µM]	IC50 [2] [µM]	IC50 [3] [µM]	Compound
0.1 to 1	1 to 50	0.1 to 1	CC(C)c1c(-c2ccc3nccn3c2)[nH]c2ccc(C3CCN(CC(=O)NCC(F)(F)F)CC3)cc12 [Example 401, 2-(4-(2-(imidazo[1,2-a]pyridin-6-yl)-3-isopropyl-1H-indol-5-yl)piperidin-1-yl)-N-(2,2,2-trifluoroethyl)acetamide]
< 0.1	1 to 50	< 0.1	Cc1cc(-c2[nH]c3ccc(C4CCN(CC(C)(C)O)CC4)cc3c2C(C)C)c2ccccc2n1 [Example 752, 1-(4-(3-isopropyl-2-(2-methylquinolin-4-yl)-1H-indol-5-yl)piperidin-1-yl)-2-methylpropan-2-ol]
< 0.1	1 to 50	< 0.1	CCN(C)CCC(=O)N1CCC(c2ccc3[nH]c(-c4cc(C)c5nnnn5c4)c(C(C)C)c3c2)CC1 [Example 625, 3-(ethyl(methyl)amino)-1-(4-(3-isopropyl-2-(8-methyltetrazolo[1,5-a]pyridin-6-yl)-1H-indol-5-yl)piperidin-1-yl)propan-1-one]
0.1 to 1	1 to 50	> 3.13	CC(C)c1c(-c2cnc3nn(C)cc3c2)[nH]c2ccc(C3CCN(C(=O)CN(C)C)CC3)cc12 [Example 505, 2-(dimethylamino)-1-(4-(3-isopropyl-2-(2-methyl-2H-pyrazolo[3,4-b]pyridin-5-yl)-1H-indol-5-yl)piperidin-1-yl)ethan-1-one]
< 0.1	1 to 50	< 0.1	Cc1c(-c2[nH]c3ccc(C4CCN(CC(=O)N(C)C)CC4)cc3c2C(C)C)c2cccnc2n1C [Example 286, 2-(4-(2-(1,2-dimethyl-1H-pyrrolo[2,3-b]pyridin-3-yl)-3-isopropyl-1H-indol-5-yl)piperidin-1-yl)-N,N-dimethylacetamide]
